Assay results as given in ChEMBL document CHEMBL3272010, “Antimycotic imidazoles. 3. Synthesis and antimycotic properties of 1-[2-(aryloxyalkyl)-2-phenylethyl]-1H-imidazoles” (1977).

test system: Aspergillus fumigatus; assay: Antifungal activity against Aspergillus fumigatus assessed as lowest dose required to total inhibition of fungal growth; format: functional

Row | Structure (SMILES) | GI
1 | COc1ccc(OCCCC(Cn2ccnc2)c2ccc(Cl)cc2Cl)cc1.O=C(O)C(=O)O (stereo unspecified) | 10 µg/mL
2 | Clc1ccc(C(CCCOc2ccccc2)Cn2ccnc2)c(Cl)c1.O=C(O)C(=O)O (stereo unspecified) | 10 µg/mL
3 | COc1ccc(OCCC(Cn2ccnc2)c2ccc(Cl)cc2Cl)cc1.O=[N+]([O-])O (stereo unspecified) | 100 µg/mL
4 | Clc1ccc(OCC(Cn2ccnc2)c2ccc(Cl)cc2Cl)c(Cl)c1.O=[N+]([O-])O (stereo unspecified) | >100 µg/mL

test system: Candida tropicalis; assay: Antifungal activity against Candida tropicalis assessed as lowest dose required to total inhibition of fungal growth; format: functional

Row | Structure (SMILES) | GI
5 | COc1ccc(OCCCC(Cn2ccnc2)c2ccc(Cl)cc2Cl)cc1.O=C(O)C(=O)O (stereo unspecified) | >100 µg/mL
6 | Clc1ccc(C(CCCOc2ccccc2)Cn2ccnc2)c(Cl)c1.O=C(O)C(=O)O (stereo unspecified) | >100 µg/mL
7 | COc1ccc(OCCC(Cn2ccnc2)c2ccc(Cl)cc2Cl)cc1.O=[N+]([O-])O (stereo unspecified) | >100 µg/mL
8 | Clc1ccc(OCC(Cn2ccnc2)c2ccc(Cl)cc2Cl)c(Cl)c1.O=[N+]([O-])O (stereo unspecified) | >100 µg/mL

test system: Candida albicans; assay: Antifungal activity against Candida albicans assessed as lowest dose required to total inhibition of fungal growth; format: functional

Row | Structure (SMILES) | GI
9 | COc1ccc(OCCCC(Cn2ccnc2)c2ccc(Cl)cc2Cl)cc1.O=C(O)C(=O)O (stereo unspecified) | 10 µg/mL
10 | Clc1ccc(C(CCCOc2ccccc2)Cn2ccnc2)c(Cl)c1.O=C(O)C(=O)O (stereo unspecified) | >100 µg/mL
11 | COc1ccc(OCCC(Cn2ccnc2)c2ccc(Cl)cc2Cl)cc1.O=[N+]([O-])O (stereo unspecified) | 100 µg/mL
12 | Clc1ccc(OCC(Cn2ccnc2)c2ccc(Cl)cc2Cl)c(Cl)c1.O=[N+]([O-])O (stereo unspecified) | >100 µg/mL

test system: Staphylococcus haemolyticus; assay: Antibaterial activity against Staphylococcus haemolyticus assessed as lowest dose required to total inhibition of bacterial growth; format: functional

Row | Structure (SMILES) | GI
13 | COc1ccc(OCCCC(Cn2ccnc2)c2ccc(Cl)cc2Cl)cc1.O=C(O)C(=O)O (stereo unspecified) | 100 µg/mL
14 | Clc1ccc(C(CCCOc2ccccc2)Cn2ccnc2)c(Cl)c1.O=C(O)C(=O)O (stereo unspecified) | 10 µg/mL
15 | COc1ccc(OCCC(Cn2ccnc2)c2ccc(Cl)cc2Cl)cc1.O=[N+]([O-])O (stereo unspecified) | 10 µg/mL
16 | Clc1ccc(OCC(Cn2ccnc2)c2ccc(Cl)cc2Cl)c(Cl)c1.O=[N+]([O-])O (stereo unspecified) | 1 µg/mL

test system: Trichophyton rubrum; assay: Antifungal activity against Trichophyton rubrum assessed as lowest dose required to total inhibition of fungal growth; format: functional

Row | Structure (SMILES) | GI
17 | COc1ccc(OCCCC(Cn2ccnc2)c2ccc(Cl)cc2Cl)cc1.O=C(O)C(=O)O (stereo unspecified) | <1 µg/mL
18 | Clc1ccc(C(CCCOc2ccccc2)Cn2ccnc2)c(Cl)c1.O=C(O)C(=O)O (stereo unspecified) | <1 µg/mL
19 | COc1ccc(OCCC(Cn2ccnc2)c2ccc(Cl)cc2Cl)cc1.O=[N+]([O-])O (stereo unspecified) | <1 µg/mL
20 | Clc1ccc(OCC(Cn2ccnc2)c2ccc(Cl)cc2Cl)c(Cl)c1.O=[N+]([O-])O (stereo unspecified) | <1 µg/mL

test system: Microsporum canis; assay: Antifungal activity against Microsporum canis assessed as lowest dose required to total inhibition of fungal growth; format: functional

Row | Structure (SMILES) | GI
21 | COc1ccc(OCCCC(Cn2ccnc2)c2ccc(Cl)cc2Cl)cc1.O=C(O)C(=O)O (stereo unspecified) | 10 µg/mL
22 | Clc1ccc(C(CCCOc2ccccc2)Cn2ccnc2)c(Cl)c1.O=C(O)C(=O)O (stereo unspecified) | 10 µg/mL
23 | COc1ccc(OCCC(Cn2ccnc2)c2ccc(Cl)cc2Cl)cc1.O=[N+]([O-])O (stereo unspecified) | 10 µg/mL
24 | Clc1ccc(OCC(Cn2ccnc2)c2ccc(Cl)cc2Cl)c(Cl)c1.O=[N+]([O-])O (stereo unspecified) | <1 µg/mL

test system: Sporothrix schenckii; assay: Antifungal activity against Sporothrix schenckii assessed as lowest dose required to total inhibition of fungal growth; format: functional

Row | Structure (SMILES) | GI
25 | COc1ccc(OCCCC(Cn2ccnc2)c2ccc(Cl)cc2Cl)cc1.O=C(O)C(=O)O (stereo unspecified) | <1 µg/mL
26 | Clc1ccc(C(CCCOc2ccccc2)Cn2ccnc2)c(Cl)c1.O=C(O)C(=O)O (stereo unspecified) | <1 µg/mL
27 | COc1ccc(OCCC(Cn2ccnc2)c2ccc(Cl)cc2Cl)cc1.O=[N+]([O-])O (stereo unspecified) | 10 µg/mL
28 | Clc1ccc(OCC(Cn2ccnc2)c2ccc(Cl)cc2Cl)c(Cl)c1.O=[N+]([O-])O (stereo unspecified) | <1 µg/mL

test system: Phialophora verrucosa; assay: Antifungal activity against Phialophora verrucosa assessed as lowest dose required to total inhibition of fungal growth; format: functional

Row | Structure (SMILES) | GI
29 | COc1ccc(OCCCC(Cn2ccnc2)c2ccc(Cl)cc2Cl)cc1.O=C(O)C(=O)O (stereo unspecified) | 10 µg/mL
30 | Clc1ccc(C(CCCOc2ccccc2)Cn2ccnc2)c(Cl)c1.O=C(O)C(=O)O (stereo unspecified) | 10 µg/mL
31 | COc1ccc(OCCC(Cn2ccnc2)c2ccc(Cl)cc2Cl)cc1.O=[N+]([O-])O (stereo unspecified) | 10 µg/mL
32 | Clc1ccc(OCC(Cn2ccnc2)c2ccc(Cl)cc2Cl)c(Cl)c1.O=[N+]([O-])O (stereo unspecified) | 100 µg/mL

test system: Saprolegnia; assay: Antifungal activity against Saprolegnia species assessed as lowest dose required to total inhibition of fungal growth; format: functional

Row | Structure (SMILES) | GI
33 | COc1ccc(OCCCC(Cn2ccnc2)c2ccc(Cl)cc2Cl)cc1.O=C(O)C(=O)O (stereo unspecified) | <1 µg/mL
34 | Clc1ccc(C(CCCOc2ccccc2)Cn2ccnc2)c(Cl)c1.O=C(O)C(=O)O (stereo unspecified) | 10 µg/mL
35 | COc1ccc(OCCC(Cn2ccnc2)c2ccc(Cl)cc2Cl)cc1.O=[N+]([O-])O (stereo unspecified) | <1 µg/mL
36 | Clc1ccc(OCC(Cn2ccnc2)c2ccc(Cl)cc2Cl)c(Cl)c1.O=[N+]([O-])O (stereo unspecified) | >100 µg/mL

test system: Erysipelothrix rhusiopathiae; assay: Antibaterial activity against Erysipelothrix insidiosa assessed as lowest dose required to total inhibition of bacterial growth; format: functional

Row | Structure (SMILES) | GI
37 | COc1ccc(OCCCC(Cn2ccnc2)c2ccc(Cl)cc2Cl)cc1.O=C(O)C(=O)O (stereo unspecified) | <1 µg/mL
38 | Clc1ccc(C(CCCOc2ccccc2)Cn2ccnc2)c(Cl)c1.O=C(O)C(=O)O (stereo unspecified) | <1 µg/mL
39 | COc1ccc(OCCC(Cn2ccnc2)c2ccc(Cl)cc2Cl)cc1.O=[N+]([O-])O (stereo unspecified) | <1 µg/mL
40 | Clc1ccc(OCC(Cn2ccnc2)c2ccc(Cl)cc2Cl)c(Cl)c1.O=[N+]([O-])O (stereo unspecified) | <1 µg/mL

test system: Streptococcus pyogenes; assay: Antibaterial activity against Streptococcus pyogenes assessed as lowest dose required to total inhibition of bacterial growth; format: functional

Row | Structure (SMILES) | GI
41 | COc1ccc(OCCCC(Cn2ccnc2)c2ccc(Cl)cc2Cl)cc1.O=C(O)C(=O)O (stereo unspecified) | <1 µg/mL
42 | Clc1ccc(C(CCCOc2ccccc2)Cn2ccnc2)c(Cl)c1.O=C(O)C(=O)O (stereo unspecified) | <1 µg/mL
43 | COc1ccc(OCCC(Cn2ccnc2)c2ccc(Cl)cc2Cl)cc1.O=[N+]([O-])O (stereo unspecified) | <1 µg/mL
44 | Clc1ccc(OCC(Cn2ccnc2)c2ccc(Cl)cc2Cl)c(Cl)c1.O=[N+]([O-])O (stereo unspecified) | <1 µg/mL

test system: Mucor; assay: Antifungal activity against Mucor species assessed as lowest dose required to total inhibition of fungal growth; format: functional

Row | Structure (SMILES) | GI
45 | COc1ccc(OCCCC(Cn2ccnc2)c2ccc(Cl)cc2Cl)cc1.O=C(O)C(=O)O (stereo unspecified) | 100 µg/mL
46 | Clc1ccc(C(CCCOc2ccccc2)Cn2ccnc2)c(Cl)c1.O=C(O)C(=O)O (stereo unspecified) | >100 µg/mL
47 | COc1ccc(OCCC(Cn2ccnc2)c2ccc(Cl)cc2Cl)cc1.O=[N+]([O-])O (stereo unspecified) | 100 µg/mL
48 | Clc1ccc(OCC(Cn2ccnc2)c2ccc(Cl)cc2Cl)c(Cl)c1.O=[N+]([O-])O (stereo unspecified) | >100 µg/mL

test system: Trichophyton mentagrophytes; assay: Antifungal activity against Trichophyton mentagrophytes assessed as lowest dose required to total inhibition of fungal growth; format: functional

Row | Structure (SMILES) | GI
49 | COc1ccc(OCCCC(Cn2ccnc2)c2ccc(Cl)cc2Cl)cc1.O=C(O)C(=O)O (stereo unspecified) | <1 µg/mL
50 | Clc1ccc(C(CCCOc2ccccc2)Cn2ccnc2)c(Cl)c1.O=C(O)C(=O)O (stereo unspecified) | <1 µg/mL
51 | COc1ccc(OCCC(Cn2ccnc2)c2ccc(Cl)cc2Cl)cc1.O=[N+]([O-])O (stereo unspecified) | <1 µg/mL
52 | Clc1ccc(OCC(Cn2ccnc2)c2ccc(Cl)cc2Cl)c(Cl)c1.O=[N+]([O-])O (stereo unspecified) | <1 µg/mL

test system: Cryptococcus neoformans; assay: Antifungal activity against Cryptococcus neoformans assessed as lowest dose required to total inhibition of fungal growth; format: functional

Row | Structure (SMILES) | GI
53 | COc1ccc(OCCCC(Cn2ccnc2)c2ccc(Cl)cc2Cl)cc1.O=C(O)C(=O)O (stereo unspecified) | <1 µg/mL
54 | Clc1ccc(C(CCCOc2ccccc2)Cn2ccnc2)c(Cl)c1.O=C(O)C(=O)O (stereo unspecified) | <1 µg/mL
55 | COc1ccc(OCCC(Cn2ccnc2)c2ccc(Cl)cc2Cl)cc1.O=[N+]([O-])O (stereo unspecified) | <1 µg/mL
56 | Clc1ccc(OCC(Cn2ccnc2)c2ccc(Cl)cc2Cl)c(Cl)c1.O=[N+]([O-])O (stereo unspecified) | <1 µg/mL
